The text below walks through data of article PMC3830801, “Synthesis and Biological Evaluation of 2-Hydroxy-3-[(2-aryloxyethyl)amino]propyl 4-[(Alkoxycarbonyl)amino]benzoates” (The Scientific World Journal, 2013).

Data set [1] is described as follows: pKa determination by RP-HPLC. In kind it is physicochemical. The settings on record: from retention factor vs pH of mobile phase, recalculated for water medium.
For data set [2], the system named is Mycobacterium avium subsp. paratuberculosis CIT03. Description: In vitro antimycobacterial evaluation (alamarBlue, MIC). In kind it is cell-based. Conditions: for MIC: Mycobacterium avium, 264 h, MIC/IC90, 11 days incubation, 37°C. How it is done: (§1) Clinical isolates of Mycobacterium avium subsp. paratuberculosis CIT03 and M. intracellulare were grown in Middlebrook broth (MB), supplemented with oleic-albumin-dextrose-catalase supplement (OADC, Becton Dickinson, UK) and mycobactin J (2 μg/mL). Identification of these isolates was performed using biochemical and molecular protocols. At log phase growth, the culture (10 mL) was centrifuged at 15,000 rpm/20 min using a bench top centrifuge (Model CR 4–12, Jouan Inc., UK). Following the removal of the supernatant, the pellet was washed in fresh Middlebrook 7H9GC broth and resuspended in fresh supplemented MB (10 mL). The turbidity was adjusted to match McFarland standard no. 1 (3 × 10^8 cfu) with MB broth. A further 1 : 20 dilution of the culture was then performed in MB broth. The antimicrobial susceptibility of all four mycobacterial species was investigated in a 96-well plate format. In these experiments, sterile deionised water (300 μL) was added to all outer-perimeter wells of the plates to minimize evaporation of the medium in the test wells during incubation. Each evaluated compound (100 μL) was incubated with each of the mycobacterial species (100 μL). Dilutions of each compound were prepared in duplicate. For all synthesized compounds, final concentrations ranged from 1,000 μg/mL to 8 μg/mL. All compounds were prepared in DMSO, and subsequent dilutions were made in supplemented MB. The plates were sealed with parafilm and incubated at 37°C, for 7 days in the case of M. intracellulare and 11 days in the case of M. avium paratuberculosis. Following incubation, a 10% addition of alamarBlue (AbD Serotec) was mixed with each well, and readings at 570 nm and 600 nm were taken, initially for background subtraction and subsequently after 24 h reincubation. […] For noninterfering compounds, a blue colour in the well was interpreted as an absence of growth, and a pink colour was scored as growth. The MIC was initially defined as the lowest concentration which prevented a visual colour change from blue to pink. […] The MIC/IC90 value is routinely and widely used in bacterial assays and is a standard detection limit according to the Clinical and Laboratory Standards Institute (CLSI, http://www.clsi.org/).

Data set [3] relates to Mycobacterium intracellulare. Described as above. The settings on record: for MIC: Mycobacterium intracellulare, 168 h, MIC/IC90, 7 days incubation, 37°C. The data set is classed as cell-based. As for the experimental part:
as §1

A short description of data set [4]: Lipophilicity determination by HPLC (capacity factor k / log k). The data set is classed as physicochemical. The settings on record: RP-HPLC, C18, MeOH 55%/H2O 45%. From the text: A Waters Alliance 2695 XE HPLC separation module and a Waters Photodiode Array Detector 2996 (Waters Corp., Milford, MA, USA) were used. A Symmetry C18 5 μm, 4.6 × 250 mm, part number WAT054275 (Waters Corp., Milford, MA, USA) chromatographic column was used. The HPLC separation process was monitored by Empower 2 Chromatography Data Software, Waters 2009 (Waters Corp., Milford, MA, USA). A mixture of MeOH p.a. (55%) and H2O-HPLC–Milli-Q Grade (45%) was used as a mobile phase. The total flow of the column was 1.0 mL/min, injection volume 30 μL, column temperature 45°C, and sample temperature 10°C. The detection wavelength of 210 nm was chosen. The KI methanolic solution was used for the dead time (t D) determination. Retention times (t R) were measured in minutes. The capacity factors k were calculated using the Empower 2 Chromatography Data Software according to formula k = (t R − t D)/t D, where t R is the retention time of the solute, whereas t D denotes the dead time obtained using an unretained analyte. logk, calculated from the capacity factor k, is used as the lipophilicity index converted to logP scale.

Data set [5] relates to spinach chloroplasts. Description: Photosynthetic electron transport (PET) in spinach chloroplasts (DCPIP photoreduction). The data set is classed as biochemical, Spinacia oleracea L. The settings on record: DMSO 8% v/v. How it is done: Chloroplasts were prepared from spinach (Spinacia oleracea L.) according to Masarovičová and Král'ová [38]. The inhibition of photosynthetic electron transport (PET) in spinach chloroplasts was determined spectrophotometrically (Genesys 6, Thermo Scientific, USA), using an artificial electron acceptor 2,6-dichlorophenol-indophenol (DCIPP) according to Král'ová et al., and the rate of photosynthetic electron transport was monitored as a photoreduction of DCPIP. The measurements were carried out in phosphate buffer (0.02 mol/L, pH 7.2) containing sucrose (0.4 mol/L), MgCl2 (0.005 mol/L), and NaCl (0.015 mol/L). The chlorophyll content was 30 mg/L in these experiments, and the samples were irradiated (~100 W/m^2 with 10 cm distance) with a halogen lamp (250 W) using a 4 cm water filter to prevent warming of the samples (suspension temperature 22°C). The studied compounds were dissolved in DMSO due to their limited water solubility, and the concentration of DMSO was constant (8% (v/v)) in control as well as in amphiphile-treated samples.

Take `CCOC(=O)Nc1ccc(C(=O)OCC(O)CNCCOc2ccccc2OC)cc1.Cl` (stereo not drawn) [Compound 19b, 2-Hydroxy-3-[2-(2-methoxyphenoxy)ethylamino]-propyl 4-(Ethoxycarbonylamino)benzoate Hydrochloride]: the pKa in data set [1] was 8.9. The minimum inhibitory concentration (MIC) in data set [2] turned out to be 128 µM; in data set [3] it was 533 µM. The compound also registered a Log k in data set [4] of 0.3976.

Consider `CCOC(=O)Nc1ccc(C(=O)OCC(O)CNCCOc2ccccc2F)cc1.Cl` (stereo not drawn) [Compound 22b, 3-[2-(2-Fluorophenoxy)ethylamino]-2-hydroxypropyl 4-(Ethoxycarbonylamino)benzoate Hydrochloride], for which, in data set [1], the pKa is 7.99. The minimal inhibitory concentration (MIC) in data set [2] and in data set [3] was 547 µM throughout. The compound further registered a Log k in data set [4] of 0.4011.

For the compound `COC(=O)Nc1ccc(C(=O)OCC(O)CNCCOc2ccc(F)cc2)cc1.Cl` (stereo not drawn) [Compound 23a, 3-[2-(4-Fluorophenoxy)ethylamino]-2-hydroxypropyl 4-(Methoxycarbonylamino)benzoate Hydrochloride], the pKa in data set [1] is 8.04. The MIC in data set [2] and in data set [3] was 564 µM in each case. Besides, the Log k in data set [4] is reported as 0.3915.

Consider `CCOC(=O)Nc1ccc(C(=O)OCC(O)CNCCOc2ccc(F)cc2)cc1.Cl` (stereo not drawn) [Compound 23b, 3-[2-(4-Fluorophenoxy)ethylamino]-2-hydroxypropyl 4-(Ethoxycarbonylamino)benzoate Hydrochloride], for which the pKa in data set [1] was 8.09. Also, the MIC in data set [2] and in data set [3] was 547 µM throughout. The compound also came in with a Log k in data set [4] of 0.4032.

For `COC(=O)Nc1ccc(C(=O)OCC(O)CNCCOc2c(OC)cccc2OC)cc1.Cl` (stereo not drawn) [Compound 21a, 2-Hydroxy-3-[2-(2,6-dimethoxyphenoxy)ethylamino]-propyl 4-(Methoxycarbonylamino)benzoate Hydrochloride], the pKa in data set [1] is 9.14. In addition, the minimal inhibitory concentration (MIC) in data set [2] and in data set [3] was 516 µM in each case. The Log k in data set [4] is listed as 0.3865.

On to `CCCCOC(=O)Nc1ccc(C(=O)OCC(O)CNCCOc2ccccc2OC)cc1.Cl` (stereo not drawn) [Compound 19d, 2-Hydroxy-3-[2-(2-methoxyphenoxy)ethylamino]-propyl 4-(Butoxycarbonylamino)benzoate Hydrochloride], for which, in data set [1], the pKa was 8.73. Besides, the MIC in data set [2] stood at 62 µM; in data set [3] it was 201 µM. Also, the “effect on the rate of PET (in words)” value in data set [5] is “significantly stimulated the rate of PET”. For the same compound, in data set [4], the Log k was 0.4228.

On to `CCOC(=O)Nc1ccc(C(=O)OCC(O)CNCCOc2ccc(OC)cc2)cc1.Cl` (stereo not drawn) [Compound 20b, 2-Hydroxy-3-[2-(4-methoxyphenoxy)ethylamino]-propyl 4-(Ethoxycarbonylamino)benzoate Hydrochloride], for which, in data set [1], the pKa is 8.23. Besides, the minimum inhibitory concentration (MIC) in data set [2] and in data set [3] was 533 µM each time. The Log k in data set [4] came out at 0.3999.

For `NC(=O)c1cnccn1` [PZA, pyrazinamide, reference compound], in data set [2], the “antimycobacterial activity against M. avium subsp. paratuberculosis (in words)” value was “inactive” and the MIC was above 2030 µM. Moreover, in data set [3], the “antimycobacterial activity against M. intracellulare (in words)” value was “inactive” and the MIC is above 812 µM.

For `COC(=O)Nc1ccc(C(=O)OCC(O)CNCCOc2ccc(OC)cc2)cc1.Cl` (stereo not drawn) [Compound 20a, 2-Hydroxy-3-[2-(4-methoxyphenoxy)ethylamino]-propyl 4-(Methoxycarbonylamino)benzoate Hydrochloride], the pKa in data set [1] is 8.25. Besides, the MIC in data set [2] and in data set [3] was 550 µM in each case. In data set [4], this compound yielded a Log k of 0.3881.

Turning to `CCCOC(=O)Nc1ccc(C(=O)OCC(O)CNCCOc2c(OC)cccc2OC)cc1.Cl` (stereo not drawn) [Compound 21c, 2-Hydroxy-3-[2-(2,6-dimethoxyphenoxy)ethylamino]-propyl 4-(Propoxycarbonylamino)benzoate Hydrochloride], in data set [1], the pKa is 8.9. The MIC in data set [2] worked out at 117 µM; in data set [3], 487 µM. The compound further had a Log k in data set [4] of 0.4052.

For `COC(=O)Nc1ccc(C(=O)OCC(O)CNCCOc2ccccc2OC)cc1.Cl` (stereo not drawn) [Compound 19a, 2-Hydroxy-3-[2-(2-methoxyphenoxy)ethylamino]-propyl 4-(Methoxycarbonylamino)benzoate Hydrochloride], the pKa in data set [1] was 8.82. Also, the MIC was determined as 275 µM in data set [2] and 550 µM in data set [3]. Further, in data set [4], the Log k stood at 0.3870.

Turning to `CCCOC(=O)Nc1ccc(C(=O)OCC(O)CNCCOc2ccc(F)cc2)cc1.Cl` (stereo not drawn) [Compound 23c, 3-[2-(4-Fluorophenoxy)ethylamino]-2-hydroxypropyl 4-(Propoxycarbonylamino)benzoate Hydrochloride], the pKa in data set [1] is 8.16. Further, the minimum inhibitory concentration (MIC) in data set [2] was 66 µM; in data set [3] it was 265 µM. In data set [4], this compound came in with a Log k of 0.4228.

Take `NNC(=O)c1ccncc1` [INH, isoniazid, reference compound]: in data set [2], the “antimycobacterial activity against M. avium subsp. paratuberculosis (in words)” value was “inactive” and the MIC is above 1820 µM. Also, in data set [3], the “antimycobacterial activity against M. intracellulare (in words)” value is “inactive” and the MIC was above 729 µM.

On to `COC(=O)Nc1ccc(C(=O)OCC(O)CNCCOc2ccccc2F)cc1.Cl` (stereo not drawn) [Compound 22a, 3-[2-(2-Fluorophenoxy)ethylamino]-2-hydroxypropyl 4-(Methoxycarbonylamino)benzoate Hydrochloride], for which the pKa in data set [1] was 7.98. Moreover, the MIC in data set [2] and in data set [3] was 564 µM each time. The Log k in data set [4] is recorded as 0.3904.

As to `CCCOC(=O)Nc1ccc(C(=O)OCC(O)CNCCOc2ccccc2F)cc1.Cl` (stereo not drawn) [Compound 22c, 3-[2-(2-Fluorophenoxy)ethylamino]-2-hydroxypropyl 4-(Propoxycarbonylamino)benzoate Hydrochloride], the pKa in data set [1] was 7.97. In addition, the minimum inhibitory concentration (MIC) in data set [2] and in data set [3] was 265 µM in each case. The Log k in data set [4] worked out at 0.4206.

For `CO[C@H]1/C=C/O[C@@]2(C)Oc3c(C)c(O)c4c(O)c(c(/C=N/N5CCN(C)CC5)c(O)c4c3C2=O)NC(=O)/C(C)=C\C=C\[C@H](C)[C@H](O)[C@@H](C)[C@@H](O)[C@@H](C)[C@H](OC(C)=O)[C@@H]1C` [RIF, rifampicin, reference compound], in data set [2], the minimum inhibitory concentration (MIC) is above 109 µM.

Turning to `CCOC(=O)Nc1ccc(C(=O)OCC(O)CNCCOc2c(OC)cccc2OC)cc1.Cl` (stereo not drawn) [Compound 21b, 2-Hydroxy-3-[2-(2,6-dimethoxyphenoxy)ethylamino]-propyl 4-(Ethoxycarbonylamino)benzoate Hydrochloride], in data set [1], the pKa was 8.88. In addition, the MIC in data set [2] and in data set [3] was 501 µM in each case. Further, in data set [4], the Log k was 0.3956.
